# Data published in US12629468B2, “Devices and methods for delivering synergistic active agents to target sites” (IRRIMAX Corporation, priority 2023, dated 2026).
# Columns and labels:
# Format in all cases: cell-based
# [1] = tested on: E. coli (ATCC BAA 1427); assay: Minimal bactericidal concentration by serial 2-fold dilution; settings: for Number of Colonies: average over triplicate
# Method: (§1) The minimal bactericidal concentration (MBC) of ethyl lauroyl arginate hydrochloride (LAE) was determined against S. aureus (ATCC 6538), P. aeruginosa (ATCC 15442), and E. coli (ATCC BAA 1427) by serial 2-fold dilution experiments. A solution of chlorhexidine (0.025% w/w) was used as a positive control and comparator.
# [2] = tested on: S. aureus (ATCC 6538); assay: as above; settings: for Number of Colonies: average over triplicate
# Method: as §1
# [3] = tested on: P. aeruginosa (ATCC 15442); assay: as above; settings: for Number of Colonies: average over triplicate
# Method: as §1
# [4] = tested on: P. aeruginosa; assay: Chequerboard assay, FIC and synergy analysis
# Method: (§2) Chlorhexidine gluconate (CHG) and ethyl lauroyl arginate hydrochloride (LAE) were analyzed by chequerboard assay with each test organism to determine potential additive, synergistic, and antagonistic activity. The test organisms S. aureus, P. aeruginosa, and E. coli were tested at ranges of chlorhexidine gluconate (0.122-15.625 μg/mL, 1.25-160 μg/mL, and 0.125-16 μg/mL, respectively) and ethyl lauroyl arginate hydrochloride (LAE) (0.117-15 μg/mL, 0.4688-60 μg/mL, and 0.2344-30 μg/mL, respectively). FIC was calculated by the following Equation 2: […]
# [5] = tested on: E. coli; assay: Chequerboard assay, FIC and synergy analysis
# Method: as §2
# [6] = tested on: S. aureus; assay: Chequerboard assay, FIC and synergy analysis
# Method: as §2
# [7] = tested on: E. coli (ATCC BAA 1427); assay: Minimum inhibitory concentration / growth inhibition by serial 2-fold dilution; settings: average of triplicate
# Method: (§3) The minimal inhibitory concentration (MIC, the minimum inhibitory concentration required for 90% growth reduction) of ethyl lauroyl arginate hydrochloride was determined against S. aureus (ATCC 6538), P. aeruginosa (ATCC 15442), and E. coli (ATCC BAA 1427) by serial 2-fold dilution experiments. A solution of chlorhexidine (0.025% w/w) was used as a positive control and comparator.
# [8] = tested on: S. aureus (ATCC 6538); assay: as above; settings: for Average Growth Inhibition (%): average of triplicate
# Method: as §3
# [9] = tested on: P. aeruginosa (ATCC 15442); assay: as above; settings: for Average Growth Inhibition (%): average of triplicate
# Method: as §3
# [10] = defined as having less than 500 CFU/mL, hydrochloride
# [11] = inhibited greater than 90% growth
compound,measurement,setting,value
CCCCCCCCCCCC(=O)N[C@@H](CCCN=C(N)N)C(=O)OCC.Cl [ethyl lauroyl arginate hydrochloride],CFU/mL,[1]; 0.46875 μg/mL,Lawn
same,Number of Colonies,[1]; 0.46875 μg/mL,"Lawn (‘Lawn’ indicates too many colonies to accurately count (e.g., greater than 250 colonies on an agar plate))"
same,CFU/mL,[1]; 0.9375 μg/mL,Lawn
same,Number of Colonies,[1]; 0.9375 μg/mL,"Lawn (‘Lawn’ indicates too many colonies to accurately count (e.g., greater than 250 colonies on an agar plate))"
same,CFU/mL,[1]; 1.875 μg/mL,Lawn
same,Number of Colonies,[1]; 1.875 μg/mL,"Lawn (‘Lawn’ indicates too many colonies to accurately count (e.g., greater than 250 colonies on an agar plate))"
same,CFU/mL,[1]; 3.75 μg/mL,Lawn
same,Number of Colonies,[1]; 3.75 μg/mL,"Lawn (‘Lawn’ indicates too many colonies to accurately count (e.g., greater than 250 colonies on an agar plate))"
same,CFU/mL,[1]; 7.5 μg/mL,Lawn
same,Number of Colonies,[1]; 7.5 μg/mL,"Lawn (‘Lawn’ indicates too many colonies to accurately count (e.g., greater than 250 colonies on an agar plate))"
same,CFU/mL,[1]; 15 μg/mL,0 CFU/mL
same,Number of Colonies,[1]; 15 μg/mL,0
same,CFU/mL,[1]; 30 μg/mL,0 CFU/mL
same,Number of Colonies,[1]; 30 μg/mL,0
same,CFU/mL,[1]; 60 μg/mL,0 CFU/mL
same,Number of Colonies,[1]; 60 μg/mL,0
same,MBC,[1]; [10],15 µg/mL
same,CFU/mL,[2]; 0.46875 μg/mL,Lawn
same,Number of Colonies,[2]; 0.46875 μg/mL,"Lawn (‘Lawn’ indicates too many colonies to accurately count (e.g., greater than 250 colonies on an agar plate))"
same,CFU/mL,[2]; 0.9375 μg/mL,Lawn
same,Number of Colonies,[2]; 0.9375 μg/mL,"Lawn (‘Lawn’ indicates too many colonies to accurately count (e.g., greater than 250 colonies on an agar plate))"
same,CFU/mL,[2]; 1.875 μg/mL,Lawn
same,Number of Colonies,[2]; 1.875 μg/mL,"Lawn (‘Lawn’ indicates too many colonies to accurately count (e.g., greater than 250 colonies on an agar plate))"
same,CFU/mL,[2]; 3.75 μg/mL,500 CFU/mL
same,Number of Colonies,[2]; 3.75 μg/mL,5
same,CFU/mL,[2]; 7.5 μg/mL,0 CFU/mL
same,Number of Colonies,[2]; 7.5 μg/mL,0
same,CFU/mL,[2]; 15 μg/mL,0 CFU/mL
same,Number of Colonies,[2]; 15 μg/mL,0
same,CFU/mL,[2]; 30 μg/mL,0 CFU/mL
same,Number of Colonies,[2]; 30 μg/mL,0
same,CFU/mL,[2]; 60 μg/mL,0 CFU/mL
same,Number of Colonies,[2]; 60 μg/mL,0
same,MBC,[2]; [10],3.75 µg/mL
same,CFU/mL,[3]; 0.46875 μg/mL,Lawn
same,Number of Colonies,[3]; 0.46875 μg/mL,"Lawn (‘Lawn’ indicates too many colonies to accurately count (e.g., greater than 250 colonies on an agar plate))"
same,CFU/mL,[3]; 0.9375 μg/mL,Lawn
same,Number of Colonies,[3]; 0.9375 μg/mL,"Lawn (‘Lawn’ indicates too many colonies to accurately count (e.g., greater than 250 colonies on an agar plate))"
same,CFU/mL,[3]; 1.875 μg/mL,Lawn
same,Number of Colonies,[3]; 1.875 μg/mL,"Lawn (‘Lawn’ indicates too many colonies to accurately count (e.g., greater than 250 colonies on an agar plate))"
same,CFU/mL,[3]; 3.75 μg/mL,Lawn
same,Number of Colonies,[3]; 3.75 μg/mL,"Lawn (‘Lawn’ indicates too many colonies to accurately count (e.g., greater than 250 colonies on an agar plate))"
same,CFU/mL,[3]; 7.5 μg/mL,Lawn
same,Number of Colonies,[3]; 7.5 μg/mL,"Lawn (‘Lawn’ indicates too many colonies to accurately count (e.g., greater than 250 colonies on an agar plate))"
same,CFU/mL,[3]; 15 μg/mL,Lawn
same,Number of Colonies,[3]; 15 μg/mL,"Lawn (‘Lawn’ indicates too many colonies to accurately count (e.g., greater than 250 colonies on an agar plate))"
same,CFU/mL,[3]; 30 μg/mL,0 CFU/mL
same,Number of Colonies,[3]; 30 μg/mL,0
same,CFU/mL,[3]; 60 μg/mL,0 CFU/mL
same,Number of Colonies,[3]; 60 μg/mL,0
same,MBC,[3]; [10],30 µg/mL
same,MIC of LAE Alone,[4]; alone,30 µg/mL
same,MIC of LAE in Presence of CHG,[4]; in presence of CHG,7.5 µg/mL
same,MIC of LAE Alone,[5]; alone,15 µg/mL
same,MIC of LAE in Presence of CHG,[5]; in presence of CHG,3.75 µg/mL
same,MIC of LAE Alone,[6]; alone,3.75 µg/mL
same,MIC of LAE in Presence of CHG,[6]; in presence of CHG,1.875 µg/mL
same,Average Growth Inhibition (%),[7]; 0.46875 μg/mL,3%
same,Average Growth Inhibition (%),[7]; 0.9375 μg/mL,6%
same,Average Growth Inhibition (%),[7]; 1.875 μg/mL,5%
same,Average Growth Inhibition (%),[7]; 3.75 μg/mL,4%
same,Average Growth Inhibition (%),[7]; 7.5 μg/mL,4%
same,Average Growth Inhibition (%),[7]; 15 μg/mL,100%
same,Average Growth Inhibition (%),[7]; 30 μg/mL,100%
same,Average Growth Inhibition (%),[7]; 60 μg/mL,99%
same,Average Growth Inhibition (%),[8]; 0.46875 μg/mL,7%
same,Average Growth Inhibition (%),[8]; 0.9375 μg/mL,-1%
same,Average Growth Inhibition (%),[8]; 1.875 μg/mL,-17%
same,Average Growth Inhibition (%),[8]; 3.75 μg/mL,100%
same,Average Growth Inhibition (%),[8]; 7.5 μg/mL,101%
same,Average Growth Inhibition (%),[8]; 15 μg/mL,101%
same,Average Growth Inhibition (%),[8]; 30 μg/mL,97%
same,Average Growth Inhibition (%),[8]; 60 μg/mL,93%
same,MIC,[8]; [11],3.75 µg/mL
same,Average Growth Inhibition (%),[9]; 0.46875 μg/mL,2%
same,Average Growth Inhibition (%),[9]; 0.9375 μg/mL,2%
same,Average Growth Inhibition (%),[9]; 1.875 μg/mL,2%
same,Average Growth Inhibition (%),[9]; 3.75 μg/mL,4%
same,Average Growth Inhibition (%),[9]; 7.5 μg/mL,5%
same,Average Growth Inhibition (%),[9]; 15 μg/mL,2%
same,Average Growth Inhibition (%),[9]; 30 μg/mL,100%
same,Average Growth Inhibition (%),[9]; 60 μg/mL,99%
same,MIC,[9]; [11],30 µg/mL
